From patent US5587402A, “Regression of mammalian leukemia cell tumors” (priority 1995, dated 1996)

Assays:
[1] = Pharmacologic analysis of serum concentration in rats; type: in vivo; conditions: rats fed 2% perillyl alcohol
Source text: In light of these observations, and our belief that p21^ras may be a target for perillyl alcohol activity in bcr/abl-transformed cells, it may be relevant that cellular ras activity is required for proliferating cells to pass through G1 (Dobrowski, et al., Mol. Cell Biol. 14: 5441-49, 1994).

[2] = test system: isoprenylation of 21-26 kDa proteins in NIH3T3 (mouse embryo) cells; assay: Protein isoprenylation in NIH3T3 cells (21-26 kDa bands, SDS-PAGE fluorography); type: cell-based; set-up: Relative activity (inhibition of isoprenylation of 21-26 kDa proteins): key to the marks not given beside the values; conditions: Experiment 2; 1 mM
Experimental: NIH3T3 (mouse embryo) cells were obtained from the American Type Culture Collection and were grown in Dulbecco's modified Eagle's medium supplemented with 10% calf serum. […] Because they carried a radioactive label, isoprenylated proteins were visualized by fluorography. As a control, cells were incubated without the monoterpene. […] Whole cell extracts were analyzed by SDS-PAGE on 16-cm×18-cm×0.75-mm gels by the method of Laemmli (supra). […] Gels were stained with Coomassie Brilliant Blue, equilibrated for 20 minutes in Amplify (Amersham Corp.) fluorographic reagent, dried under vacuum at 65° C., and exposed to […] Some fluorograms were analyzed further by densitometry. […] Protein content was measured by the method of Lowry, et al. […] FIG. 1 depicts the structures of these monoterpenes.

[3] = test system: human cancer cell lines; assay: Growth of human cancer cell lines (NCI Developmental Therapeutics Program); type: cell-based
Experimental: Various concentrations of perillyl alcohol inhibited the growth of a number of human cancer cell lines. FIG. 5A-G is a set of diagrams showing the effects of perillyl alcohol on different cancer cell lines. These experiments were conducted by the National Cancer Institute Developmental Therapeutics Program.

[4] = test system: DMBA-induced rat mammary carcinomas; assay: Pair-feeding study: regression and inhibition of DMBA-induced mammary carcinomas in rats; type: in vivo, Wistar-Furth female rats
Experimental: We used Wistar-Furth female rats for in vivo studies. Wistar-Furth female rats were obtained from Harlan Sprague-Dawley, Inc., (Madison, Wis.). […] Rates were provided Teklad Lab blox chow and acidified water ad libitum.
The DMBA was dissolved in a stock solution of 20 mg DMBA/ml sesame oil, heated and allowed to cool to room temperature before administration. DMBA (Eastman Kodak, Rochester, N.Y.) was given as a single gastric intubation of 50 mg DMBA/kg rat body weight.
In the pair-feeding study, a group of 70 mammals was treated with DMBA. Beginning four weeks post-carcinogen administration, mammals were weighed and palpated weekly.
Fresh diets were make every 7-10 days. All mammals were provided fresh diet daily to minimize evaporation of the monoterpenes.
In a pair-feeding study, all palpable mammary tumors were classified as either "primary" tumors (i.e., the first tumor(s) palpated with a minimum diameter of 3 mm) or "secondary" tumors (i.e. a palpable tumor arising after initial diet assignment). […] All carcinogen-exposed mammals not bearing a first palpable tumor by week 15 post-carcinogen were removed from the experiment. Complete regression of a tumor was defined as non-palpability for a minimum of three consecutive weeks. All mammals in the pair-feeding study were followed for a minimum of 10 weeks post-diet assignment for tumor growth or regression at primary tumor sites and all other mammary glands. The rats were necropsied if moribund. Complete necropsies were performed on all rats at the termination of the study.

[5] = test system: p210-transformed FDC-P1 cells; assay: Proliferation of p210 bcr/abl-transformed FDC-P1 myeloid cells; type: cell-based, murine
Experimental: (§1) (The p210 bcr/abl oncogene is carried on a helper-free retrovirus referred to as "p210.") FDC-P1 myeloid cells are an immature cell line from myeloid lineage derived from mouse bone marrow (Dexter, TM, J. Exp. Med. 152: 1036-1047, 1980).

[6] = test system: M600B cells; assay: Inhibition of M600B cell growth; type: cell-based, human; conditions: FIG. 4
Experimental: (§2) NIH3T3 (mouse embryo) cells were obtained from the American Type Culture Collection and were grown in Dulbecco's modified Eagle's medium supplemented with 10% calf serum. M600B immortalized human mammary epithelial cells (Stampfer, M. R., 1985, J. Tissue Culture Methods 9: 107-115) were obtained from Dr. Martha Stampfer and were grown in supplemented HCDB 170 medium (Hammond, et al. (1984) Proc. Natl. Acad. Sci U.S.A. 81: 5435-5439), as described previously (Stampfer, et al. (1985) Proc. Natl. Acad. Sci U.S.A. 82: 2394-2398; Eldridge, et al. (1989) Cancer Res. 49: 4326-4331).
(§3) All cells were maintained in 100-mm dishes at 37° C. in a humidified 5% CO2 atmosphere. Viable cells were distinguished from nonviable cells by counting azure II/methylene blue-stained colonies 10 days after the cells were plated at a density of 100 cells per dish. Trypan blue exclusion was measured by incubating cells for 1 minute with one drop of trypan blue per 10 ml of cells. Viable (colorless) and nonviable (blue) cells were then counted on a hemocytometer.
(§4) Additionally, growth of HT29 (human colon adenocarcinoma) cells was inhibited by 80% by 1 mM perillyl alcohol.

[7] = test system: nontransformed FDC-P1 cells; assay: Proliferation of nontransformed FDC-P1 myeloid cells; type: cell-based, murine; conditions: Mus musculus, FDC-P1, read-out: inhibition of cell growth
Experimental: as §1

[8] = test system: NIH3T3 cells; assay: Inhibition of NIH3T3 cell growth; type: cell-based, mouse; conditions: FIG. 3
Experimental: as §2, §3, §4

[9] = test system: p210 transformed FDC-P1 cells (F-p210.1); assay: Cell cycle distribution of p210-transformed FDC-P1 cells; type: cell-based, murine; conditions: for Cell cycle distribution (% > GO /G1): untreated control 53; for arrest at the G0/G1 stage: 500 μM
Experimental: (§5) Table 3 tabulates the effect of P-OH on cell cycle distribution of nontransformed and p210 transformed FDC-P1 cells.
(§6) ^1 Cells were plated at 2.5 × 10^5 per ml in duplicate well
(§7) of a 24well plate in the presence of 10% WEHI3-conditioned media as a
(§8) source of IL3 and with the indicated concentration of P--OH. After 24
(§9) hours, the cells were fixed in ethanol, permeabilized and stained with
(§10) propidium iodide, then analyzed for DNA content by flow cytometry.
(§11) ^2 FDCP1 = nontransformed cells, Fp210.1 = 210transformed FDCP1 cells

[10] = test system: nontransformed FDC-P1 cells; assay: Cell cycle distribution of nontransformed FDC-P1 cells; type: cell-based, murine; conditions: for Cell cycle distribution (% > GO /G1): 24 hours, untreated control 62
Experimental: as §5, §6, §7, §8, §9, §10, §11

C=C(C)[C@@H]1CC=C(CO)CC1 [perillyl alcohol]
serum concentration relative to the in vitro effective concentration range [1]: within the effective concentration range observed in these in vitro experiments | Relative activity (inhibition of isoprenylation of 21-26 kDa proteins) [2]: +++++ | inhibition of cell growth ([3]; variety of human cancer cell types including leukemia cells (FIG. 5A)): inhibition of cell growth | inhibition of cancer cell growth ([3]; various concentrations, FIG. 5A-G, all lines): inhibited cancer cell growth | development of secondary tumors ([4]; 2.5% perillyl alcohol diet): inhibited the development of secondary tumors | Primary Tumor Regression (tumors regressed / tumors) ([4]; 2.5% perillyl alcohol diet, complete regression, pair-fed control 9/29, listed as POH): 22/27 | Primary Tumor Regression (%) ([4]; 2.5% perillyl alcohol diet, complete regression, pair-fed control 31%): 81% | Number of Secondary Tumors/Rat ([4]; 2.5% perillyl alcohol diet, pair-fed control 1.62): 0.04 | Time to Regress ([4]; 2.5% perillyl alcohol diet, pair-fed control 5.6, listed as POH): 3.6 ± 0.3 wks | Secondary Tumor Regression (tumors regressed / tumors) ([4]; 2.5% perillyl alcohol diet, pair-fed control 11/42): 0/1 | Secondary Tumor Regression (%) ([4]; 2.5% perillyl alcohol diet, pair-fed control 26%): 0% | secondary tumors / mammals ([4]; 2.5% perillyl alcohol diet, pair-fed control 42/26): 1/26 | amount of perillyl alcohol needed relative to the amount of limonene ([4]; 2.5% perillyl alcohol versus 10% limonene diet): 25% | time for a primary tumor to regress to a non-palpable mass ([4]; perillyl alcohol-treated group versus pair-fed controls): shorter than the time for spontaneous regression in the pair-fed controls | growth inhibition, transformed versus nontransformed cells ([5]; 100-800 μM, FIG. 9B): significantly more inhibitory for the growth of p210-transformed FDC-P1 cells compared to nontransformed FDC-P1 cells | growth-inhibitory curve with added IL-3 ([5]; IL-3 added): significantly shifted upward | inhibition at 400 µM ([5]; Mus musculus, FDC-P1, read-out: inhibition of growth): > 80% | reversion of autonomously growing malignant cells ([5]; conclusion from in vitro results): reverts autonomously growing malignant cells to a factor-dependent, apoptosis-sensitive state | inhibition of cell growth [6]: significantly inhibited cell growth in a dose-dependent manner | inhibition at 400 µM [7]: < 15% | inhibition of cell growth [8]: significantly inhibited cell growth in a dose-dependent manner | Cell cycle distribution (% > GO /G1) ([9]; 100 μM P--OH, 24 hours): 53% | apoptosis ([9]; 500 μM P--OH, 24 hours): Significant apoptosis | Cell cycle distribution (% > GO /G1) ([9]; 500 μM P--OH, 24 hours): 16% | arrest at the G0/G1 stage ([9]; 24 hours): almost completely arrested at the G0 /G1 stage | arrest at the G0/G1 stage ([9]; 24 hours, listed as P--OH): entirely in the G0 /G1 stage of the cell cycle | morphological changes ([9]; up to 500 μM): morphological changes suggestive of apoptotic cell death | Cell cycle distribution (% > GO /G1) ([10]; 100 μM P--OH): 57% | Cell cycle distribution (% > GO /G1) ([10]; 500 μM P--OH): 49% | changes in the cell cycle distribution ([10]; up to 500 μM): only minor changes
